Like-named read-outs stand apart in the source and are kept apart here.
Assays:
Format in all cases: in vivo
[1] = test system: Yellow Fever Mosquito (Aedes aegypti, AEDSAE); details: for YFM rating: Table ABC / ABC-DP rating
In short: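 Mortality after 3 days at room temperature is the read-out, scored well by well and converted to a rating. Test molecules came from 4000 ppm stocks in DMSO, further diluted in 90:10 water/acetone, and were exposed to roughly 1-day-old larvae suspended in liver-powder water.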

[2] = test system: Cabbage Looper (Trichoplusia ni, TRIPNI); test: Bioassays on Cabbage Looper (CL), 128-well diet tray assay; details: Trichoplusia ni
In short: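 Each of eight wells receives artificial diet treated at 50 μg/cm^2 with the test molecule, then one to five second-instar larvae. Incubation runs five to seven days at 25° C with a 14:10 light-dark cycle under vented covers. Mortality is scored per well as a percentage and averaged.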

[3] = test system: Beet Armyworm (Spodoptera exigua, LAPHEG); test: Bioassays on Beet Armyworm (BAW), 128-well diet tray assay; details: Spodoptera exigua
In short: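 Second-instar larvae, one to five per well, were placed on artificial diet surface-treated with 50 μg/cm^2 compound in 90:10 acetone-water, eight wells per treatment. Trays were held 5–7 days at 25 °C, 14:10 light-dark. Percent mortality per well was averaged over eight wells.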

[4] = Yellow Fever Mosquito, rating class
[5] = Cabbage Looper, rating class, read-out: CL
[6] = Beet Armyworm, rating class, read-out: BAW
[7] = Cabbage Looper, Table ABC / ABC-DP rating, read-out: CL rating
[8] = Beet Armyworm, Table ABC / ABC-DP rating, read-out: BAW rating
[9] = Table ABC: Biological Results, species YFM
[10] = Table ABC: Biological Results, species CL, read-out: CL
[11] = Table ABC: Biological Results, species BAW, read-out: BAW

Structure (SMILES) | YFM [1, 4] | pest or weed control at 50 µg/cm2 [2, 5] | pest or weed control at 50 µg/cm2 [3, 6] | YFM rating ([1]; Yellow Fever Mosquito) | pest or weed control at 50 µg/cm2 [2, 7] | pest or weed control at 50 µg/cm2 [3, 8] | other results
CC(=O)Nc1ccc(F)c(NC(=O)c2cc(NC(=O)[C@H]3[C@H](c4ccc(F)c(C(F)(F)F)c4)C3(Cl)Cl)ccc2F)c1F [F1562, N-(3-Acetamido-2,6-difluorophenyl)-5-((1R,3R)-2,2-dichloro-3-(4-fluoro-3-(trifluoromethyl)phenyl)cyclopropane-1-carboxamido)-2-fluorobenzamide] | A (80–100) | 50 to 100% | 50 to 100% |  |  |  | 
O=C(Nc1cc(NC(=O)C(F)F)c(F)cc1F)c1cc(NC(=O)[C@H]2[C@H](c3ccc(F)c(C(F)(F)F)c3)C2(Cl)Cl)ccc1F [F1558, 5-((1R,3R)-2,2-Dichloro-3-(4-fluoro-3-(trifluoromethyl)phenyl)cyclopropane-1-carboxamido)-N-(5-(2,2-difluoroacetamido)-2,4-difluorophenyl)-2-fluorobenzamide] | A (80–100) | 50 to 100% | 50 to 100% |  |  |  | 
O=C(CCC(F)(C(F)(F)F)C(F)(F)F)Nc1c(F)ccc(NC(=O)c2cc(NC(=O)[C@H]3[C@H](c4ccc(F)c(C(F)(F)F)c4)C3(Cl)Cl)ccc2Cl)c1F [F1829, 2-Chloro-5-((1R,3R)-2,2-dichloro-3-(4-fluoro-3-(trifluoromethyl)phenyl)cyclopropane-1-carboxamido)-N-(2,4-difluoro-3-(4,5,5,5-tetrafluoro-4-(trifluoromethyl)pentanamido)phenyl)benzamide] |  |  |  | A (80–100) | 50 to 100% | 50 to 100% | 
CC(=O)Nc1c(F)ccc(NC(=O)c2cc(NC(=O)[C@H]3[C@H](c4cc(Cl)cc(Cl)c4)C3(Cl)Cl)cc(F)c2F)c1F [F1439, N-(3-Acetamido-2,4-difluorophenyl)-5-((1R,3R)-2,2-dichloro-3-(3,5-dichlorophenyl)cyclopropane-1-carboxamido)-2,3-difluorobenzamide] | A (80–100) | 50 to 100% | 50 to 100% |  |  |  | 
C=C(F)C(=O)Nc1c(F)ccc(NC(=O)c2cc(NC(=O)[C@H]3[C@H](c4ccc(F)c(C(F)(F)F)c4)C3(Cl)Cl)ccc2Cl)c1F [F1870, 2-Chloro-5-((1R,3R)-2,2-dichloro-3-(4-fluoro-3-(trifluoromethyl)phenyl)cyclopropane-1-carboxamido)-N-(2,4-difluoro-3-(2-fluoroacrylamido)phenyl)benzamide] |  |  |  | A (80–100) | 50 to 100% | 50 to 100% | 
O=C(NNC(=O)c1cc(NC(=O)[C@H]2[C@H](c3cc(Cl)cc(Cl)c3)C2(Cl)Cl)ccc1Cl)OC(F)(F)F (relative stereo) [F2543, trans-Trifluoromethyl 2-(2-chloro-5-(2,2-dichloro-3-(3,5-dichlorophenyl)cyclopropane-1-carboxamido)benzoyl)hydrazine-1-carboxylate] |  |  |  | A (80–100) | 50 to 100% | 50 to 100% | 
CC(C)(C)OC(=O)Nc1ccc(F)c(NC(=O)c2cc(NC(=O)[C@H]3[C@H](c4cc(Cl)cc(Cl)c4)C3(Cl)Cl)ccc2Cl)c1F (relative stereo) [F1023, trans-tert-Butyl-(3-(2-chloro-5-(2,2-dichloro-3-(3,5-dichlorophenyl)cyclopropane-1-carboxamido)benzamido)-2,4-difluorophenyl)carbamate] |  |  |  |  |  |  | YFM [1, 9]: A (80–100); pest or weed control at 50 µg/cm2 [2, 10]: 50 to 100%; pest or weed control at 50 µg/cm2 [3, 11]: 50 to 100%
O=C(Nc1ccc(F)cc1F)c1cc(NC(=O)[C@H]2[C@@H](c3ccc(F)c(Cl)c3F)C2(Cl)Cl)ccc1Cl (relative stereo) [F1033, cis-2-Chloro-5-(2,2-dichloro-3-(3-chloro-2,4-difluorophenyl)cyclopropane-1-carboxamido)-N-(2,4-difluorophenyl)benzamide] |  |  |  |  |  |  | YFM [1, 9]: A (80–100); pest or weed control at 50 µg/cm2 [2, 10]: 50 to 100%; pest or weed control at 50 µg/cm2 [3, 11]: 50 to 100%
